# Reference: a melting point compilation (Tetko et al.; mined from patent text by program, amines drawn as free bases though some values may be those of a salt)
row,Structure (SMILES),melting point
1,COc1ccc(S(=O)(=O)N(CC(=O)O)CC(=O)O)cc1,177 to 178 °C
2,CCCc1c(OCCCCCCc2cc(OC)c(OC)c(C(C)C)c2)ccc(C(=O)O)c1O,106 to 108 °C
3,COc1cc2c(cc1OC)C(c1ccccc1N)=NN=C(C)C2,172 to 174 °C
4,CS(=O)(=O)c1ccc(C[C@@H](NC(=O)OCc2ccccc2)[C@H](O)C(=O)O)cc1,168 to 172 °C
5,Nc1c(C(=O)O)cccc1-c1ccc(CCc2ccc(Cl)c(C(F)(F)F)c2)cc1,150 to 152 °C
6,CC(O)(CNc1ccc(S(=O)(=O)c2ccccc2)cc1)C(F)(F)F (stereo not given),145 to 146 °C
7,Cc1ccc(CC2CCN(C(=O)C(=O)Nc3ccc4c(c3)OCC(=O)N4)CC2)cc1,228 to 231 °C
8,Cn1cc(-c2cccc(C(F)(F)F)c2)c(=O)c(-c2ccc(Cl)cc2Cl)c1,139 to 142 °C
9,CCOC(=O)/C=C/C=C/c1ccc(OCC(F)(F)C(F)F)cc1,65 to 66 °C
10,COC(=O)COc1c(I)cc(-c2c3ccccc3cc3sc4ccccc4c23)cc1I,203 to 205 °C
11,CC1(C)C2CCC3(C2)C1c1ncncc1CC3(C)C (stereo not given),44 to 45 °C
12,COC(=O)c1ccc(-c2ccc(-c3ccccc3)c(-c3ccc4c(c3)C(C)(C)CCC4(C)C)c2)c(O)c1,183 to 185 °C
13,Cc1cc(C)c2cccc(OCc3c(Cl)ccc(S(=O)(=O)N4CCC[C@H]4C(=O)NCc4cccc(C(N)=S)c4)c3Cl)c2n1,116 to 118 °C
14,COc1ccc2nc(CO)n(C)c2n1,138 to 140 °C
15,c1ccc2c(c1)C[C@@H]1CCc3ccccc3[C@@H]1O2 (relative stereo),71 to 72 °C
16,CCCc1c(OCc2ccccc2)ccc2c(C)c(C(=O)c3ccc(OC)cc3)oc12,105 to 106 °C
17,COc1ccc(C(C#N)C(=O)Cc2ccccc2)cc1 (stereo not given),115 to 116 °C
18,CC12CCC(=O)C(CSc3ccccc3)=C1CCC1C2CCC2(C)C1CCC2(C)O (stereo not given),123 to 130 °C
19,O=Cc1ccc(-c2nnn[nH]2)cc1,180 to 182 °C
20,COc1ccc2[nH]cc(CCCCN3CC=C(c4cccs4)CC3)c2c1,158 °C
21,O=C(NCC(C(O)c1ccc([N+](=O)[O-])cc1)N1CCC(Cc2ccccc2)CC1)c1ccccc1 (stereo not given),143 to 147 °C
22,CCC(=O)NCC(CO)c1cccc2ccc(OC)cc12 (stereo not given),128 to 129 °C
23,CCOC(=O)c1cnn2c1c(=S)[nH]c1ccccc12,270 to 272 °C
24,COc1cc(OCC2CCCO2)ccc1/C=C/C(=O)CC(=O)/C=C/c1ccc2cc[nH]c2c1 (stereo not given),159 to 161 °C

row,Structure (SMILES),melting point
1,CCOc1nn(-c2ccc(C(F)(F)F)cn2)cc1CCCOc1cc(CCC(=O)O)n(-c2ccccc2)n1,121 to 122 °C
2,CC(Cn1nccn1)n1nnc2cc3c(=O)n(C(C)Cn4ncnn4)nnc3cc2c1=O (stereo not given),139 to 140 °C
3,CCN(CC)c1ccc(-n2c(CC(=O)O)c(C(=O)O)c3cc(Oc4ccc(C(F)(F)F)cc4)ccc32)cc1,234 to 236 °C
4,CC(C)c1ccc(N(Cc2cnn(C(C)C)c2)C(=O)C2CCCc3c(O)cccc32)cc1 (stereo not given),185 °C
5,O=C(NCc1ccc(Cl)cc1)c1cnc2c(Cl)c(Cl)ccc2c1O,295 to 297 °C
6,N=C(Nc1ccc2c(c1)CN1CCOCC1C2)c1cccs1 (stereo not given),190 to 194 °C
7,Cc1scc2c1N(C(=O)N1CCC(CCCCN3CCCCC3)CC1)c1ccccc1NC2=O,209 to 210 °C
8,Cc1cc(C(C)C)cc(C)c1CCl,63 to 65 °C
9,Clc1ccc2c(c1)NCc1ccccc1O2,94 to 95 °C
10,ClCCCSc1nnnn1-c1ccccc1,33 to 34 °C
11,CC(C)(C)OC(=O)N1CCN(CCSc2nc3ccccc3[nH]2)CC1,175 to 176 °C
12,Nc1nc2ccccc2c2c1nc(CO)n2CCCCNC(=O)C1CCCC1,183 to 186 °C
13,CCCC(c1ccncc1)n1ccc2ccccc21 (stereo not given),91 to 94 °C
14,Cc1c(NC(=O)CCCC(=O)c2ccc(Cl)cc2)ccc2cc(CN3CCCC3)cnc12,173 to 174 °C
15,O=C1CCC(C(=O)Nc2ccc(-n3nc(C(F)(F)F)cc3C(F)(F)F)cc2)O1 (stereo not given),172 to 173 °C
16,CCOC(=O)c1c(C(F)(F)F)cc(C(F)(F)F)nc1N,84 to 86 °C
17,CCOC(=O)c1ncn2c1[C@@H]1CCN1C(=O)c1c-2ccc(F)c1Cl,161 to 163 °C
18,CCN(C)C(=O)c1cnn(-c2cccc(C#N)c2)c1C#N,185 to 187 °C
19,c1ccc2c(c1)CC(CN1CCN(c3ccc4c(c3)CCO4)CC1)C2,180 to 182 °C
20,COc1ccc(-c2cccc(-c3nc(C(C)C)[nH]c3-c3cccc(C)n3)c2)cc1,75 to 77 °C
21,CCOC(=O)c1c[nH]c2ccc(C(=O)c3c(C)c(OC)c4ccccn34)cc2c1=O,271 °C
22,Cc1cccc(OC2CCN(CCc3c[nH]c4ccccc34)CC2)c1,145 to 146 °C
23,OC(C=CCN1CCC(O)(c2ccc(Cl)cc2)CC1)c1ccc(F)cc1 (stereo not given),126 to 127 °C
24,Cc1ccc(NC(=O)N2CCN(CCc3ccc(-c4cccc(N)n4)cc3)CC2)cc1,160 to 162 °C

row,Structure (SMILES),melting point
1,CCCCCC(Cc1cnc(CCCC)n1Cc1ccccc1Cl)C(=O)O (stereo not given),124 to 127 °C
2,Clc1cccc(Nc2nc(OCC3CCCCC3)c3[nH]cnc3n2)c1,196 to 199 °C
3,COc1ccc(S(=O)(=O)N2c3cc(F)ccc3-c3ccc(F)cc3C2C)cc1 (stereo not given),141 to 143 °C
4,O=Cc1c(Cl)ccc(C2OCCO2)c1Cl,96 to 98 °C
5,CCCCCCCCCCCCCCCCCCN(C)C(=O)c1ccc(Cl)c([N+](=O)[O-])c1,55 to 56 °C
6,CC(C)(Cc1ccccc1)C(NC(=O)c1ccc(Cl)cc1)NC(=N[N+](=O)[O-])Nc1cccnc1 (stereo not given),205 to 207 °C
7,CN1CCN(c2ccc(-c3cnc4c(c3)C(O)CCN4)cn2)CC1 (stereo not given),124 to 128 °C
8,N#CNC(=O)[C@@H]1CCC(=O)N1C(=O)OCc1ccccc1,185 to 186 °C
9,NNC(=O)C(Cl)c1cccc(Cl)n1 (stereo not given),176 to 177 °C
10,O=C(Cc1ccc(Oc2ccccc2)cc1)NNC(=O)c1ccc(O)cc1,181 to 183 °C
11,CCOC(=O)C(C)(C)Oc1ccc(CNC(=O)c2sc(-c3ccc(C(C)C)cc3)nc2C)cc1C,129 to 131 °C
12,CS(=O)(=O)c1ccc(C(CC2CCCC2)C(=O)Nc2ccccn2)cc1Br (stereo not given),99 to 101 °C
13,COc1cc(C(=O)Nc2c(Cl)cncc2Cl)cc2c1oc1ccccc12,165 to 166 °C
14,COC(=O)CCc1cc2cc(Cl)ccc2n1S(=O)(=O)c1ccc(F)cc1,129 to 131 °C
15,CCC1(CC)C(=O)C(C)N(c2ccc(C#N)c(Cl)c2)C1=O (stereo not given),93.5 to 94.5 °C
16,Cc1cc(C(=O)N[C@@H]2CCc3cccc(N4CCN(C)CC4)c3C2)ccc1N1CCOCC1,172 to 175 °C
17,O=C(O)C(=O)c1ccc(OCCOC2CCc3ccccc3C2)cc1 (stereo not given),119 to 120 °C
18,COc1cc(C2(C=O)C=CC=CC2)ccc1OCCCBr (stereo not given),88 to 89 °C
19,CCOc1cc(C(CS(C)(=O)=O)N2C(=O)c3cccc(NS(C)(=O)=O)c3C2=O)ccc1OC (stereo not given),191 to 193 °C
20,OCCNCCNCc1ccc(-c2cc3ncnc(Nc4ccc5[nH]ccc5c4)c3s2)cc1,78 to 95 °C
21,COC(=O)c1nccnc1NCc1ccncc1,95 °C
22,CCOC(=O)c1cnn(-c2cc(C(=O)Nc3cc(C(C)(C)C)cc(NS(C)(=O)=O)c3OC)ccc2C)c1,125 to 130 °C
